Experimental data: patent US20230089247A1, “NOVEL COMPOUNDS SUITABLE FOR THE TREATMENT OF DYSLIPIDEMIA” (ZYDUS LIFESCIENCES LIMITED, priority 2019, published 2023)

Target: PCSK9 (Homo sapiens, UniProt Q8NBP7)
Assay: BODIPY-LDL uptake assay in HepG2 cells
Type: cell-based
Details: 5 μg/ml PCSK9, BODIPY-LDL
Procedure: BODIPY-LDL Uptake Assay in HepG2 Cells.
An established assay for PCSK9 inhibition features uptake of fluorescently labeled LDL nanoparticles (BODIPY-LDL) by hepatocytes and uptake of the BODIPY-containing particles is maximized in the absence of PCSK9.
In the LDL uptake assay, HepG2 cells were seeded at a density of 6×10^4 cells/well in a 96-well plate. After 24 h, the test compounds at various concentrations were pre-incubated with 5 μg/ml PCSK9 in 0.2% DMSO for 60 min prior to the addition on to the cells. After 16 h the medium was removed and 1 μg/ml BODIPY-LDL (Invitrogen) in serum free media was added and incubated for 5 h. Then the cells were washed twice with 0.25% BSA in PBS. Then the fluorescence of the cells in PBS was measured using TECAN multimode reader (Excitation: 485 nm and Emission: 520 nm). The readings were taken in triplicate and the final values were normalized with the protein concentration from respective wells. The wells without test compound containing external PCSK9 is considered as zero uptake and the one without PCSK9 was considered as 100% uptake. The percentage increase in LDL uptake for the test compounds were calculated using these values.

Sequence of PCSK9 (Q8NBP7 153-692): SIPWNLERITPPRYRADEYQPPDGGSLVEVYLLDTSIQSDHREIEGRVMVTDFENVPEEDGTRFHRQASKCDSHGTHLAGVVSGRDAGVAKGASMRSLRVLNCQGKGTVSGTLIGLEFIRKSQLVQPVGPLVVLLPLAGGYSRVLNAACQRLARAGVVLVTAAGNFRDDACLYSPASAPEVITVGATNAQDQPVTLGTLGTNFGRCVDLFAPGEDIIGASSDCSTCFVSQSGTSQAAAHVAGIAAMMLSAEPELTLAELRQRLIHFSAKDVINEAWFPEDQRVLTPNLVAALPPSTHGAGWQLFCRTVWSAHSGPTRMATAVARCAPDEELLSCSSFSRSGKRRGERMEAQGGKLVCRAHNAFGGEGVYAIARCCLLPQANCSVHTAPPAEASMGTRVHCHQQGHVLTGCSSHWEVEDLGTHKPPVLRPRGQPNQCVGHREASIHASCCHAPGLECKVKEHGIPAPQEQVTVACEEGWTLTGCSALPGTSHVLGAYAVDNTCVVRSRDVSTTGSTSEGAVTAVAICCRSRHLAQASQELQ

SMILES	% increase in LDL Uptake (1 μM test compound) [%]	% increase in LDL Uptake (10 μM test compound) [%]	% increase in LDL Uptake (30 μM test compound) [%]
COC1(c2cccc(C(=O)N3CC4=C(C3)CN(c3ccc(C(F)(F)F)cc3)C4)c2)COC1 [Example 97, (3-(3-methoxyoxetan-3-yl)phenyl)(5-(4-(trifluoromethyl)phenyl)-3,4,5,6-tetrahydropyrrolo[3,4-c]pyrrol-2(1H)-yl)methanone]	0	0	24
COC1(c2ccc(C(=O)N3CCCN(c4ccc(C(F)(F)F)cc4)CC3)cc2)COC1 [Example 185, (4-(3-methoxyoxetan-3-yl)phenyl)(4-(4-(trifluoromethyl)phenyl)-1,4-diazepan-1-yl)methanone]	0	29	109
O=C(c1ccc(C2(O)COC2)cc1)N1CCN(c2ccc(C(F)(F)F)nc2)CC1 [Example 217, (4-(3-hydroxyoxetan-3-yl)phenyl)(4-(6-(trifluoromethyl)pyridin-3-yl)piperazin-1-yl) methanone]	0	5	128
COC1(c2ccc(C(=O)N3CCC(c4ccc(C(F)(F)F)cc4)CC3)cc2)CCOCC1 [Example 143, (4-(4-methoxytetrahydro-2H-pyran-4-yl)phenyl)(4-(4-(trifluoromethyl)phenyl)piperidin-1-yl)methanone]	0	41	28
O=C(c1cccc(C2(OCC3CC3)COC2)c1)N1CC2CN(c3ccc(C(F)(F)F)cc3)CC2C1 (stereo not drawn) [Example 181, (3-(3-(cyclopropylmethoxy)oxetan-3-yl)phenyl)(5-(4-(trifluoromethyl)phenyl)hexahydropyrrolo[3,4-c]pyrrol-2(1H)-yl)methanone]	3	19	26
COC1(c2ccc(C(=O)N3CCC(c4ccc(C(F)(F)F)cc4)CC3)cc2)CCNC1 (stereo not drawn) [Example 153, (4-(3-methoxypyrrolidin-3-yl)phenyl)(4-(4-(trifluoromethyl)phenyl)piperidin-1-yl)methanone]	0	47	46
O=C(c1ccc(C2(OCC3CC3)COC2)cc1)N1CCC(c2ccc(C(F)(F)F)cc2)CC1 [Example 46, (4-(3-(cyclopropylmethoxy)oxetan-3-yl)phenyl)(4-(4-(trifluoromethyl)phenyl)piperidin-1-yl)methanone]	28	47	34
COC1(c2ccc(C(=O)N3CCN(c4ccc(C(F)(F)F)cn4)CC3)cc2)COC1 [Example 218, (4-(3-methoxyoxetan-3-yl)phenyl)(4-(5-(trifluoromethyl)pyridin-2-yl)piperazin-1-yl)methanone]	0	26	85
COC1(c2cccc(C(=O)N3CCN(c4ccc(C(F)(F)F)cn4)CC3)c2)COC1 [Example 221, (3-(3-methoxyoxetan-3-yl)phenyl)(4-(5-(trifluoromethyl)pyridin-2-yl)piperazin-1-yl)methanone]	0	28	66
COC1(c2ccc(C(=O)N3CC4=C(C3)CN(c3ccc(C(F)(F)F)cc3)C4)cc2)COC1 [Example 202, (4-(3-methoxyoxetan-3-yl)phenyl)(5-(4-(trifluoromethyl)phenyl)-3,4,5,6-tetrahydropyrrolo[3,4-c]pyrrol-2(1H)-yl)methanone]	16	0	36
CCOC1(c2ccc(C(=O)N3CCCC(c4ccc(C(F)(F)F)cc4)C3)cc2)COC1 (stereo not drawn) [Example 123, (4-(3-ethoxyoxetan-3-yl)phenyl)(3-(4-(trifluoromethyl)phenyl)piperidin-1-yl)methanone]	0	14	30
